Here are results for 3 molecules from patent US20130323167A1, “DETECTING AND TREATING SOLID TUMORS THROUGH SELECTIVE DISRUPTION OF TUMOR VASCULATURE” (THE JOHNS HOPKINS UNIVERSITY, priority 2010, published 2013).

In one data set the test system is subcutaneous CT26 tumors. The class given is in vivo, BALB/c mice. The note with it: injection of the agent instead of TNF-α. How it is done: All animal experiments were overseen and approved by the Animal Welfare Committee of Johns Hopkins University, and were in compliance with the University standards. For the subcutaneous tumor model, female, six to eight week-old BALB/c mice (Harlan Breeders) were used. Five million CT26 cells were injected subcutaneously into the right flank of each mouse and allowed to grow for ˜10 days before randomization, group assignment, and treatment. C. novyi-NT spores were administered by a bolus tail vein injection of 300 million spores suspended in 0.2 mL of phosphate buffered saline, pH 7.5 (PBS). Cytotoxic anticancer agents were administered 16 hours later via the same route. TNF-α was reconstituted freshly before administration in doubly-distilled H2O at 100 ng/mL and diluted into 0.1% (w/v) BSA in PBS at a final concentration of 10 ng/mL. Cytotoxic agents were injected within a few minutes thereafter. Tumor volume was calculated as […]. For the orthotopic brain tumor model, female C57BL6 mice, 5-6 weeks of age, were purchased from the NCI-Frederick. […] Animals were monitored for potential side effects following drug administration. […]

In the next data set the test system is CT26 tumors. Kind of data set: Treatment of fully developed subcutaneous CT26 tumors (tumor volume, survival). The class given is in vivo, BALB/c mice. As to conditions: TNF-α 25 ng/kg combined with Doxil or ^131I-labeled IgG.
For data set [1] the following is noted: multiple injections (3 infusions/week) of a dose comparable to the highest mouse dose; cited from earlier work.

As for `CCC1=C[C@@H]2CN(C1)Cc1c([nH]c3ccccc13)[C@@](C(=O)OC)(c1cc3c(cc1OC)N(C)[C@H]1[C@@](O)(C(=O)OC)[C@H](OC(C)=O)[C@]4(CC)C=CCN5CC[C@]31[C@@H]54)C2` [vinorelbine], in the data set with subcutaneous CT26 tumors, the “induction of E^2PR by microtubule-interacting agent” value is “resulted in E^2PR, though not as impressively as TNF-α”. In the case of `COc1ccc(/C=C\c2cc(OC)c(OC)c(OC)c2)cc1OP(=O)(O)O` [Combretastatin A4P, combretastatin A4 phosphate], the “induction of E^2PR by microtubule-interacting agent” value in the data set with subcutaneous CT26 tumors is “resulted in E^2PR, though not as impressively as TNF-α”.

On to TNF-α, for which, in the data set with CT26 tumors, the “cures and survival at lower dose of TNF-α” value is reported as “none of the treated animals were cured, although prolonged survival was observed”. The tolerability in humans entry in data set [1] is recorded as “tolerate”.
